This assay concerns Plasmodium berghei. Put plainly: Luciferase/luciferin-expressing antifolate-resistant parasites were used to infect a culture of HepG2 cells that were pre-incubated with compounds. Infected hepatocytes emit light due to the luciferase reaction. Assay results are presented as the percent inhibition of light emission compared to control. […]. The assay is classed as functional. The conditions noted are these: sporozoite; for IC90: read-out: LUCIFERASE INFECTION ASSAY - IC90.

Setting [1] is: read-out: LUCIFERASE INFECTION ASSAY - IC50.

On to `CN(Cc1ccccc1NC(=O)c1ccc2c(c1)OCC(=O)N2)C1CCCCC1`, for which the IC90 (usually the concentration needed for an effect of 90%) is over 10 µM. Moreover, for the setting “PBLUC_HILL_SLOPE 10.4, PBLUC_R_SQUARED 0.15, read-out: LUCIFERASE INFECTION ASSAY - IC50”, the 50% inhibitory concentration (IC50) (in general, the concentration at which inhibition is half-maximal) worked out at 9.56 µM.

Take `CCOc1cc(C(=O)N(CC2CCCO2)C2CCS(=O)(=O)C2)cc(OCC)c1OCC` (configuration not stated): the concentration for an effect of 90% (IC90) is over 10 µM. Besides, under setting [1], the 50% inhibitory concentration (IC50) is over 10 µM.

Turning to `CCN1C/C(=C/c2ccc(NC(C)=O)cc2)C(=O)/C(=C/c2ccc(NC(C)=O)cc2)C1`, the IC90 is over 10 µM. Under setting [1], the half-maximal inhibitory concentration (IC50) was over 10 µM.

Take `Cc1ccc(OCC(=O)N(Cc2ccccc2)c2c(N)n(Cc3ccccc3)c(=O)[nH]c2=O)c(C)c1`: the 90% effect concentration (IC90) is over 10 µM. Also, the IC50 (PBLUC_HILL_SLOPE 0.649, PBLUC_R_SQUARED 0.141, read-out: LUCIFERASE INFECTION ASSAY - IC50) was over 10 µM.

As to `CC(C)(C)C(=O)Nc1ccc([N+](=O)[O-])cc1C#N`, the 90% effect concentration (IC90) came to 4.31 µM. The IC50 (PBLUC_HILL_SLOPE 2.44, PBLUC_R_SQUARED 0.671, read-out: LUCIFERASE INFECTION ASSAY - IC50) amounted to 1.75 µM.

As to `COc1cc(OC)cc(C(NS(=O)(=O)c2cc(C(F)(F)F)ccc2Cl)c2nccn2C)c1` (configuration not stated), the IC90 is over 10 µM. The IC50 (PBLUC_HILL_SLOPE 9.29, PBLUC_R_SQUARED 0.399, read-out: LUCIFERASE INFECTION ASSAY - IC50) was 8.07 µM.

With `COC(=O)c1occc1CSc1nc(NC(=O)c2ccccc2)c2c(C)c(C)oc2n1`, the 90% effect concentration (IC90) is over 10 µM. Besides, the half-maximal inhibitory concentration (IC50) under setting [1] was over 10 µM.

Take `O=C(Nc1ccc(Oc2cc(C(F)(F)F)cc(C(F)(F)F)c2)cc1)c1cccs1`: the concentration for an effect of 90% (IC90) is 0.356 µM. Besides, the concentration for half-maximal inhibition (IC50) (PBLUC_HILL_SLOPE 1.36, PBLUC_R_SQUARED 0.733, read-out: LUCIFERASE INFECTION ASSAY - IC50) amounted to 0.0707 µM.

As for `COc1cc(C(=O)OC(C)c2ccc(F)cc2)cc(OC)c1OC` (configuration not stated), the IC90 was over 10 µM. The IC50 (PBLUC_HILL_SLOPE 3.41, PBLUC_R_SQUARED 0.0259, read-out: LUCIFERASE INFECTION ASSAY - IC50) stood at 9.26 µM.

As to `O=C(Cn1[nH]c(=O)c2ccccc2c1=O)NCc1ccc(CN2CCOCC2)cc1`, the IC90 is over 10 µM. In addition, under setting [1], the IC50 is over 10 µM.

Regarding `COc1ccc(CN2CCN(c3ncc(C(=O)Nc4ccc5c(c4)OCO5)s3)C2=O)cc1`, the concentration for an effect of 90% (IC90) came to 4.14 µM. Also, under “HEPG2TOX_HILL_SLOPE 2.58, HEPG2TOX_R_SQUARED 0.97, PBLUC_HILL_SLOPE 17.4, PBLUC_R_SQUARED 0.0851, read-out: LUCIFERASE INFECTION ASSAY - IC50”, the 50% inhibitory concentration (IC50) came to 3.65 µM.

Consider `Cc1ccc(Nc2nc(C(F)(F)F)nc3ccccc23)cc1S(=O)(=O)N(C)C`, for which the IC90 is over 10 µM. Also, the concentration for half-maximal inhibition (IC50) under setting [1] was over 10 µM.

For `O=C1CN(C(=O)Cc2ccc3c(c2)CCO3)c2ccccc2N1`, the 90% effect concentration (IC90) was over 10 µM. The IC50 under setting [1] is over 10 µM.

Consider `NC(Cc1ccc(C(F)(F)F)cc1)c1csc(Nc2nncc3ccccc23)n1` (configuration not stated), for which the IC90 was over 7.94 µM. The IC50 under setting [1] is over 7.94 µM.

Regarding `COc1ccc(-c2nc(C(=O)NC3CCCC3)cc3c2[nH]c2ccccc23)cc1`, the IC90 was over 8.56 µM. In addition, the IC50 under setting [1] is 8.53 µM.

Turning to `NC(=O)c1ccc(-c2cc(-c3ccccc3Oc3ccccc3)cnc2N)cc1`, the IC90 is 2.98 µM. In addition, the 50% inhibitory concentration (IC50) (PBLUC_HILL_SLOPE 21, PBLUC_R_SQUARED 0.292, read-out: LUCIFERASE INFECTION ASSAY - IC50) worked out at 2.68 µM.

Consider `O=C(Nc1cccc(F)c1)Nc1ccc2nc(-c3ccoc3)nn2c1`, for which the IC90 is over 10 µM. Where the note is “PBLUC_HILL_SLOPE 11.8, PBLUC_R_SQUARED 0.647, read-out: LUCIFERASE INFECTION ASSAY - IC50”, the IC50 worked out at 8.63 µM.

For `CN(C)c1ccc(NC(=O)N2[C@@H]3CC[C@@H](C3)[C@H]2c2nc3cccc(OCc4ccc(F)cc4)c3[nH]2)cc1`, the IC90 is over 10 µM. Moreover, the half-maximal inhibitory concentration (IC50) (PBLUC_HILL_SLOPE 11.3, PBLUC_R_SQUARED 0.0257, read-out: LUCIFERASE INFECTION ASSAY - IC50) was over 10 µM.

Regarding `COc1cc2nc(-c3ccccc3)nc(N3CCN(CCN4CCCC4)CC3)c2cc1OC`, the 90% effect concentration (IC90) was found to be 7.65 µM. Moreover, the 50% inhibitory concentration (IC50) (PBLUC_HILL_SLOPE 1.93, PBLUC_R_SQUARED 0.643, read-out: LUCIFERASE INFECTION ASSAY - IC50) is 2.46 µM.

`CCS(=O)(=O)N1CCC(C(=O)Nc2nnc(-c3cccc([N+](=O)[O-])c3)o2)(c2ccccc2)CC1`: the IC90 is 4.58 µM. Moreover, under “HEPG2TOX_HILL_SLOPE 16.8, 22.3, HEPG2TOX_R_SQUARED 0.565, 0.956, PBLUC_HILL_SLOPE 8.45, PBLUC_R_SQUARED 0.439, read-out: LUCIFERASE INFECTION ASSAY - IC50”, the half-inhibitory concentration (IC50) came to 3.53 µM.

As for `CCN(c1ccccc1)S(=O)(=O)c1ccc(Cl)c(NC(=O)C2(c3ccc(Cl)cc3)CCCC2)c1`, the concentration for an effect of 90% (IC90) was over 10 µM. The half-inhibitory concentration (IC50) under setting [1] was over 10 µM.

Turning to `CC(=O)c1ccc(NC(=O)CCn2nnc(-c3ccc(C(C)C)cc3)n2)cc1`, the IC90 is over 10 µM. Further, for the setting “PBLUC_HILL_SLOPE 1, PBLUC_R_SQUARED 0.439, read-out: LUCIFERASE INFECTION ASSAY - IC50”, the IC50 amounted to 6.32 µM.

As to `Cc1c(OCC(=O)NCc2ccccn2)ccc2c1oc(=O)c1ccccc12`, the IC90 is over 8.81 µM. Besides, the concentration for half-maximal inhibition (IC50) (FFLUC_HILL_SLOPE 12.1, FFLUC_R_SQUARED 0.777, PBLUC_HILL_SLOPE 13, PBLUC_R_SQUARED 0.252, read-out: LUCIFERASE INFECTION ASSAY - IC50) came out at 8.19 µM.

On to `C/C(=N\NC(=O)c1ccc(N/N=C(\C)c2ccccc2Br)cc1)c1ccccc1Br`, for which the 90% effect concentration (IC90) was over 10 µM. Also, the IC50 under setting [1] was over 10 µM.

For `O=C(N/N=C1/C(=O)c2cccc3cccc1c23)c1cccc(S(=O)(=O)N2CCCCC2)c1`, the IC90 was over 10 µM. In addition, the half-inhibitory concentration (IC50) under setting [1] is over 10 µM.

Take `Cc1sc2nc(CN3CCCC3)nc(Oc3ccc4ccncc4c3)c2c1C`: the IC90 was over 10 µM. The IC50 under setting [1] came to 9.51 µM.

The record behind these values is ChEMBL document CHEMBL4483862, “Open-source discovery of chemical leads for next-generation chemoprotective antimalarials” (2018).
